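Results reflect a 48-hour exposure of cells in 96-well plates to compound at five concentrations. TGI marks complete inhibition of growth.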
Legend:
Test in all cases: growth of human tumour cells (NCI), 48 h
SF-539 CNS = tested on: SF-539 CNS
OVCAR-8 ovarian = tested on: OVCAR-8 ovarian
NCI/ADR-RES ovarian = tested on: NCI/ADR-RES ovarian
HCT-15 colon = tested on: HCT-15 colon
NCI-H522 lung = tested on: NCI-H522 lung
MOLT-4 leukemia = tested on: MOLT-4 leukemia
TK-10 renal = tested on: TK-10 renal
DU-145 prostate = tested on: DU-145 prostate
MDA-MB-231 breast = tested on: MDA-MB-231 breast
KM12 colon = tested on: KM12 colon
IGROV1 ovarian = tested on: IGROV1 ovarian
A498 renal = tested on: A498 renal
OVCAR-4 ovarian = tested on: OVCAR-4 ovarian
UACC-257 melanoma = tested on: UACC-257 melanoma
NCI-H226 lung = tested on: NCI-H226 lung
LOX IMVI melanoma = tested on: LOX IMVI melanoma
MALME-3M melanoma = tested on: MALME-3M melanoma
MDA-MB-435 = tested on: MDA-MB-435
SK-MEL-28 melanoma = tested on: SK-MEL-28 melanoma
K-562 leukemia = tested on: K-562 leukemia
MCF7 breast = tested on: MCF7 breast
HOP-62 NSCLC = tested on: HOP-62 NSCLC
MDA-N = tested on: MDA-N
SN12C renal = tested on: SN12C renal
UO-31 renal = tested on: UO-31 renal
HOP-92 NSCLC = tested on: HOP-92 NSCLC
HS 578T breast = tested on: HS 578T breast
T-47D breast = tested on: T-47D breast
ACHN renal = tested on: ACHN renal
SF-268 CNS = tested on: SF-268 CNS
COLO 205 colon = tested on: COLO 205 colon
EKVX NSCLC = tested on: EKVX NSCLC
SNB-75 CNS = tested on: SNB-75 CNS
UACC-62 melanoma = tested on: UACC-62 melanoma
786-0 renal = tested on: 786-0 renal
HT29 colon = tested on: HT29 colon
OVCAR-5 ovarian = tested on: OVCAR-5 ovarian
SNB-19 CNS = tested on: SNB-19 CNS
BT-549 breast = tested on: BT-549 breast
HCT-116 colon = tested on: HCT-116 colon
M14 melanoma = tested on: M14 melanoma
NCI-H23 lung = tested on: NCI-H23 lung
CAKI-1 renal = tested on: CAKI-1 renal
SF-295 CNS = tested on: SF-295 CNS
PC-3 prostate = tested on: PC-3 prostate
NCI-H460 lung = tested on: NCI-H460 lung
U251 CNS = tested on: U251 CNS
CCRF-CEM leukemia = tested on: CCRF-CEM leukemia
SW-620 colon = tested on: SW-620 colon
OVCAR-3 ovarian = tested on: OVCAR-3 ovarian
SK-OV-3 ovarian = tested on: SK-OV-3 ovarian
HL-60(TB) leukemia = tested on: HL-60(TB) leukemia
SK-MEL-5 melanoma = tested on: SK-MEL-5 melanoma
RXF 393 renal = tested on: RXF 393 renal
A549 NSCLC = tested on: A549 NSCLC
HCC-2998 colon = tested on: HCC-2998 colon
RPMI-8226 leukemia = tested on: RPMI-8226 leukemia
SR leukemia = tested on: SR leukemia
SK-MEL-2 melanoma = tested on: SK-MEL-2 melanoma

Measured: TGI

COc1ccc2c(c1)CCCN1Cc3ccccc3CC21 (centres undefined)
96.8 µM: A498 renal
56.7 µM: SK-MEL-5 melanoma
not listed: RPMI-8226 leukemia | SR leukemia | SK-MEL-2 melanoma
> 100 µM: all other assays above

COc1ccc(NS(=O)c2ccc(OC)cc2)cc1 (centres undefined)
74.4 µM: SF-268 CNS
32.5 µM: SF-539 CNS
90.9 µM: MALME-3M melanoma
83.6 µM: SK-MEL-2 melanoma
99.4 µM: IGROV1 ovarian
48.5 µM: UO-31 renal
82.8 µM: T-47D breast
24.1 µM: KM12 colon
34.2 µM: U251 CNS
66.2 µM: UACC-62 melanoma
not listed: A498 renal | HOP-92 NSCLC | SNB-75 CNS | PC-3 prostate | SK-OV-3 ovarian | RXF 393 renal
> 100 µM: all other assays above
